In patent US11053204B2, “Pyrimidinyloxy benzene derivatives as herbicides” (FMC Corporation, priority 2015, dated 2021):

Key:
Assay type in all cases: in vivo
[1] = tested on: blackgrass (Alopecurus myosuroides); assay: Test A postemergence, visual injury rating; conditions: 0 is no effect, 100 is complete control
How it was run: (§1)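 Pre- and postemergence greenhouse screen. Soil: loam + sand. Spray carrier: solvent mixture, non-phytotoxic, with surfactant. Post timing at 1–2 leaves, height 2–10 cm. Readout: visual injury on a 0–100 scale roughly 10 days after application, untreated plants as reference.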

[2] = tested on: giant foxtail (Setaria faberii); assay: Test A postemergence, visual injury rating; conditions: 0 is no effect, 100 is complete control
How it was run: as §1

[3] = tested on: barnyardgrass (Echinochloa crus-galli); assay: Test A postemergence, visual injury rating; conditions: 0 is no effect, 100 is complete control
How it was run: as §1

[4] = tested on: ragweed (common ragweed, Ambrosia elatior); assay: Test A postemergence, visual injury rating; conditions: 0 is no effect, 100 is complete control
How it was run: as §1

[5] = tested on: galium (catchweed bedstraw, Galium aparine); assay: Test A postemergence, visual injury rating; conditions: 0 is no effect, 100 is complete control
How it was run: as §1

[6] = tested on: pigweed (Amaranthus retroflexus); assay: Test A postemergence, visual injury rating; conditions: 0 is no effect, 100 is complete control
How it was run: as §1

corn (Zea mays) = assay: Test A postemergence, visual injury rating; conditions: 0 is no effect, 100 is complete control
How it was run: as §1

kochia (Kochia scoparia) [7] = assay: Test A postemergence, visual injury rating; conditions: 0 is no effect, 100 is complete control
How it was run: as §1

[8] = tested on: Italian ryegrass (Lolium multiflorum); assay: Test A postemergence, visual injury rating; conditions: 0 is no effect, 100 is complete control
How it was run: as §1

[9] = tested on: wheat (Triticum aestivum); assay: Test A postemergence, visual injury rating; conditions: 0 is no effect, 100 is complete control
How it was run: as §1

[10] = tested on: giant foxtail (Setaria faberii); assay: Test A preemergence, visual injury rating; conditions: 0 to 100 scale (0 no effect, 100 complete control)
How it was run: as §1

[11] = tested on: barnyardgrass (Echinochloa crus-galli); assay: Test A preemergence, visual injury rating; conditions: 0 to 100 scale (0 no effect, 100 complete control)
How it was run: as §1

[12] = tested on: ragweed (common ragweed, Ambrosia elatior); assay: Test A preemergence, visual injury rating; conditions: 0 to 100 scale (0 no effect, 100 complete control)
How it was run: as §1

[13] = tested on: pigweed (Amaranthus retroflexus); assay: Test A preemergence, visual injury rating; conditions: 0 to 100 scale (0 no effect, 100 complete control)
How it was run: as §1

kochia (Kochia scoparia) [14] = assay: Test A preemergence, visual injury rating; conditions: 0 to 100 scale (0 no effect, 100 complete control)
How it was run: as §1

[15] = tested on: Italian ryegrass (Lolium multiflorum); assay: Test A preemergence, visual injury rating; conditions: 0 to 100 scale (0 no effect, 100 complete control)
How it was run: as §1

[16] = tested on: ragweed (common ragweed, Ambrosia elatior); assay: Test C preemergence, plant response rating; conditions: Preemergence
Description: Seeds of plant species selected from blackgrass (Alopecurus myosuroides), ryegrass, Italian (Italian ryegrass, Lolium multiflorum), wheat (winter wheat, Triticum aestivum), galium (catchweed bedstraw, Galium aparine), corn (Zea mays), crabgrass, large (large crabgrass, Digitaria sanguinalis), foxtail, giant (giant foxtail, Setaria faberii), johnsongrass (Sorghum halepense), lambsquarters (Chenopodium album), morningglory (Ipomoea coccinea), nutsedge, yellow (yellow nutsedge, Cyperus esculentus), pigweed (Amaranthus retroflexus), ragweed (common ragweed, Ambrosia elatior), soybean (Glycine max), barnyardgrass (Echinochloa crus-galli), oilseed rape (Brassica napus), pigweed, palmer (palmer pigweed, Amaranthus palmeri), waterhemp (common waterhemp, Amaranthus rudis), velvetleaf (Abutilon theophrasti), kochia (Kochia scoparia), surinam grass (Brachiaria decumbens), nightshade (eastern black nightshade, Solanum ptycanthum), wild poinsettia (Euphorbia heterophylla), windgrass (Apera spica-venti), and oat, wild (wild oat Avena fatua), were planted into a blend of loam soil and sand or a silt loam soil and treated preemergence with test chemicals formulated in a non-phytotoxic solvent mixture which included a surfactant.
At the same time, plants selected from these crop and weed species and also chickweed (common chickweed, Stellaria media), buckwheat, wild (wild buckwheat, Polygonum convolvulus), wild mustard (Sinapis arvensis), field poppy (Papaver rhoeas), field violet (Viola arvensis), geranium, cutleaf (cutleaf geranium, Geranium dissectum), Canada thistle (Cirsium arvense), and speedwell (bird's-eye speedwell, Veronica persica), were planted in pots containing Sunshine Redi-Earth® planting medium comprising spaghnum peat moss, vermiculite, starter nutrients and dolomitic limestone and treated with postemergence applications of test chemicals formulated in the same manner. Plants ranged in height from 2 to 18 cm (1- to 4-leaf stage) for postemergence treatments. Treated plants and controls were maintained in a greenhouse for 13 to 15 d, after which time all species were compared to controls and visually evaluated. Plant response ratings, summarized in Table C, are based on a scale of 0 to 100 where 0 is no effect and 100 is complete control. A dash (-) response means no test result.

[17] = 125 g ai/ha, 0 to 100 scale, approximately 10 days

Structure (SMILES): N#Cc1cccc(Oc2ncc(Cl)cn2)c1CCCC(F)(F)F [Compound 72]
- Blackgrass plant response rating (0 to 100 scale) ([1]; 125 g ai/ha): 30
- Blackgrass plant response rating (0 to 100 scale) ([1]; 500 g ai/ha): 50
- Foxtail, Giant plant response rating (0 to 100 scale) ([2]; 125 g ai/ha): 70
- Foxtail, Giant plant response rating (0 to 100 scale) ([2]; 500 g ai/ha): 100
- Barnyardgrass plant response rating (0 to 100 scale) ([3]; 125 g ai/ha): 80
- Barnyardgrass plant response rating (0 to 100 scale) ([3]; 500 g ai/ha): 100
- Ragweed plant response rating [4, 17]: 10
- Ragweed plant response rating (0 to 100 scale) ([4]; 500 g ai/ha): 30
- Galium plant response rating (0 to 100 scale) ([5]; 125 g ai/ha): 80
- Galium plant response rating (0 to 100 scale) ([5]; 500 g ai/ha): 100
- Pigweed plant response rating [6, 17]: 100
- Pigweed plant response rating (0 to 100 scale) ([6]; 500 g ai/ha): 100
- Corn plant response rating (0 to 100 scale) (corn (Zea mays); 125 g ai/ha): 50
- Corn plant response rating (0 to 100 scale) (corn (Zea mays); 500 g ai/ha): 60
- Kochia plant response rating (kochia (Kochia scoparia) [7]; [17]): 100
- Kochia plant response rating (0 to 100 scale) (kochia (Kochia scoparia) [7]; 500 g ai/ha): 100
- Ryegrass, Italian plant response rating [8, 17]: 10
- Ryegrass, Italian plant response rating (0 to 100 scale) ([8]; 500 g ai/ha): 40
- Wheat plant response rating [9, 17]: 10
- Wheat plant response rating (0 to 100 scale) ([9]; 500 g ai/ha): 40
- Foxtail, Giant plant response rating ([10]; 125 g ai/ha): 90
- Foxtail, Giant plant response rating ([10]; 500 g ai/ha): 100
- Barnyardgrass plant response rating ([11]; 125 g ai/ha): 90
- Barnyardgrass plant response rating ([11]; 500 g ai/ha): 100
- Ragweed plant response rating ([12]; 125 g ai/ha): 0
- Ragweed plant response rating ([12]; 500 g ai/ha): 10
- Pigweed plant response rating ([13]; 125 g ai/ha): 100
- Pigweed plant response rating ([13]; 500 g ai/ha): 100
- Kochia plant response rating (kochia (Kochia scoparia) [14]; 125 g ai/ha): 90
- Kochia plant response rating (kochia (Kochia scoparia) [14]; 500 g ai/ha): 100
- Ryegrass, Italian plant response rating ([15]; 125 g ai/ha): 10
- Ryegrass, Italian plant response rating ([15]; 500 g ai/ha): 30
- Plant response rating, Ragweed ([16]; 125 g ai/ha, scale of 0 to 100): 45
- Plant response rating, Ragweed ([16]; 16 g ai/ha, scale 0 to 100): 0
- Plant response rating, Ragweed ([16]; 31 g ai/ha, scale 0 to 100): 0
- Plant response rating, Ragweed ([16]; 62 g ai/ha, scale 0 to 100): 40
